Experimental data taken from patent US8889143B2, “Ii-key/HER-2/neu hybrid cancer vaccine” (Antigen Express, Inc., priority 2006, dated 2014).

Columns and labels:
PBMC [1] = assay: IFN-γ ELISPOT assays (ex vivo and 7-day) on patient PBMC; type: cell-based, human; settings: PBMC of patients vaccinated with AE37; label = stimulating peptide
Source text: Blood was drawn from patients prior to receiving each inoculation, at one month (post-vaccination), and at six months (long-term) after completing the series. Forty ml of peripheral blood was drawn into Vacutainer® CPT™ tubes (Becton Dickinson, Franklin Lakes, N.J.) and centrifuged for the isolation of PBMC populations. […]
The human IFN-γ ELISPOT Kit (BD-Pharmingen) was used for the ELISPOT assays. […] The plate was allowed to dry and the number of spots present in each well was counted and analyzed using a CTL-ImmunoSpot Analyzer (C.T.L. Cellular Technology Ltd, OH) (FIGS. 7-10). […]
The PBMC population prepared from the patient's peripheral blood (as described in the previous section) was resuspended at 2×10^6 cells/ml in CM and added as 1 ml aliquots to the 8 wells. […] At the end of the incubation period the plate was removed and the cells/cultures were harvested into separate tubes, spun down, resuspended in CM, and counted. […] The plate was allowed to dry and the number of spots present in each well was counted and analyzed using a CTL-ImmunoSpot Analyzer (C.T.L. Cellular Technology Ltd, OH) (FIGS. 11-14). […]

PBMC [2] = assay: 3H-thymidine proliferation assay on patient PBMC; type: cell-based, human; settings: PBMC of patients vaccinated with AE37, label = stimulating peptide
Source text: Blood was drawn from patients prior to receiving each inoculation, at one month (post-vaccination), and at six months (long-term) after completing the series. Forty ml of peripheral blood was drawn into Vacutainer® CPT™ tubes (Becton Dickinson, Franklin Lakes, N.J.) and centrifuged for the isolation of PBMC populations. PBMC were washed in HBSS and re-suspended in culture medium (CM) consisting of RPMI-1640 containing 10% FCS (Gemini Bio-Products, Woodland, Calif.) supplemented with 1× penicillin/L-glutamine/streptomycin (Life Technologies, Gaithersburg, Md.) and used for setting up the immunomonitoring protocol/assays which consisted of ELISPOT (IFN-γ secretion) and proliferation (3H-thymidine incorporation) assays. All cultures were maintained in a humidified incubator at 37° C. in 5% CO2.
The PBMC population prepared from the patient's peripheral blood sample was also used for the monitoring of vaccine-specific proliferative activity of the T lymphocytes using a standard radioactive ^3H-thymidine incorporation assay. […] The filtermat was dried and placed in a sample bag with scintillation fluid (BetaScint, Perkin-Elmer) and counted using a scintillation counter (MicroBeta Trilux Scintillation Counter, Perkin-Elmer). The proliferative activity associated with the cultures was measured by the amount of thymidine incorporation which was determined as counts per minute (cpm). […]

[3] = Phase II trial: DTH reactions; type: in vivo, human; settings: label = challenge peptide
Source text: (§1) Immunologic response was monitored by measured delayed type hypersensitivity reactions (DTH) and ^3H-thymidine proliferative assays for both hybrid AE37 (LRMK+HER2/neu:776-790) and AE36 (unmodified HER2/neu:776-790) peptides.

[4] = Phase II trial: 3H-thymidine proliferative assays; type: cell-based, human; settings: label = stimulating peptide
Source text: as §1

[5] = Phase Ib trial: local reaction and dose reductions; type: in vivo, human
Method: The study was performed as a two-stage safety trial to define the maximum tolerated dose of vaccine as well as the optimal dosing of the vaccine and GM-CSF. In the first stage (FIGS. 1-4), patient dose groups were given escalating amounts of the AE37 peptide. Three patients were assigned to each dosing group and were given the assigned dose of AE37 with a fixed initial dose of GM-CSF of 250 μg. This dose of GM-CSF was chosen based on our previous E75 trials. However, GM-CSF was reduced 50% for subsequent inoculations when local skin reaction exceeded 100 mm. All patients received monthly inoculations for six months. Dosing groups were as follows (AE37 (μg):#inoculations): 100:6, 500:6, 1000:6. Because each patient in the 500:6 group required significant and repeated reductions of GM-CSF, the 1000:6 group was initially inoculated without GM-CSF; GM-CSF was added back if local reaction from the two injection sites were non-confluent.
The hybrid peptide AE37 was mixed with GM-CSF (varying doses) and injected intradermally in the same extremity on a monthly basis. Each dosing group consisted of 3 patients. […] Stage I was designed to identify the maximum tolerated dose of vaccine. Stage II was designed to find the optimal biologic dose. Local toxicity dictated dose adjustments in each stage.
A local reaction ≧100 mm in at least one direction necessitates a reduction of GM-CSF dose for the subsequent vaccination (or reduction in vaccine dose if patient received no GM-CSF). […] FIGS. 1-4 show the dose of GM-CSF and the local reaction in each patient throughout the vaccine series.

[6] = Phase Ib trial: delayed type hypersensitivity (DTH) reaction; type: in vivo, human; settings: 100 μg AE37 intradermal without GM-CSF
Method: A direct in vivo measure of the vaccine's effectiveness is the DTH reaction. Patients were injected intradermally with 100 μg of AE37 (without GM-CSF) prior to the initiation of the vaccination series and one month after the completion of the vaccination regimen in the opposite limb to which they received the vaccine series. Patients were also injected intradermally with a parallel control (sterile saline, same volume) at a site on the back or extremity (opposite side from the vaccination site). The DTH reaction was measured in two dimensions at 48-72 hours using the sensitive ballpoint pen method and compared with control. Pre- and post-vaccination DTH reactions were also compared.

[7] = Phase II trial: recurrence of breast cancer; type: in vivo, human; settings: for Recurrences (patients/total) / Recurrences: median follow up of 13 months; for Recurrences: PG vs AG p=0.08
Method: (§2) Toxicity is assessed after each inoculation using National Cancer Institute Common Terminology Criteria for Adverse Events v3.0 (CTCAE). […] Patients are clinically, radiographically, and pathologically monitored for recurrence of BCa.

[8] = in vivo
Source text: The dose escalation safety trial design is for five groups of three patients to receive escalating doses of AE37 with or without GM-CSF in six monthly inoculations. An additional six patients will be vaccinated at the optimal biologic dosing (OBD) in order to complete the 21 patient phase I trial. Enrolled patients were HLA typed, and HLA-A2^− patients and those HLA-A2^+ patients not interested in an alternative vaccine trial were vaccinated.
The National Institutes of Health Common Toxicity Criteria (CTC) (Version 2, Mar. 23, 1998) definitions of adverse events were applied. Both local toxicity at the injection sites as well as systemic toxicity were evaluated in all patients for all inoculations. By design, progression to the second stage occurred only if no significant toxicity occurred in the first stage.
Toxicities were graded per the National Institutes of Health Common Toxicity Criteria and reported on a scale zero to five (Table 3). Local toxicity dictated dose reductions as described above.

[9] = in vivo; remark: listed apart in the source
Method: as §2

[10] = Phase II trial AE37+GM-CSF versus GM-CSF alone: toxicity (CTCAE v3.0); settings: six monthly inoculations, AG = GM-CSF alone
Method: as §2

[11] = Her-2/neu+ breast cancer patients; cited from earlier work
[12] = test system: hen egg white lysozyme (HEL)-specific T cell hybridoma; settings: cited from earlier work
[13] = AG group (GM-CSF alone), p>0.05 vs baseline
[14] = PG group (AE37 + GM-CSF), p<0.0001 vs baseline
[15] = PG (AE37 + GM-CSF), at 3, 6, and 12 months after the start of the vaccine series, p<0.015

Substance: Ac-GVGSPYVSRLLGICL-NH2 [AE36, native HER-2/neu peptide aa776-790, reference compound]
- CD4+ T cell response (IFN-γ ELISPOT) to stimulating peptide after vaccination (PBMC [1]): increased CD4+ T cell response
- Peptide-specific proliferation of T cells after vaccination (PBMC [2]): increased capacity to divide and expand a specific clone
- Peptide-specific proliferation of T cells after vaccination (PBMC [2]; listed as native Her-2/neu peptide): increased CD4+ T cell response
- Median DTH reaction at baseline ([3]; AG group (GM-CSF alone)): 0.0±0.5 cm
- Median DTH reaction at 1 month after completion of the primary series [3, 13]: 0 mm
- Median DTH reaction at baseline ([3]; PG group (AE37 + GM-CSF)): 0.0±0.8 cm
- Median DTH reaction at 1 month after completion of the primary series [3, 14]: 15.3 ± 2.1 mm
- Median proliferation response versus baseline ([4]; AG (GM-CSF alone)): did not significantly change
- Median proliferation response versus baseline [4, 15]: significantly increased from baseline

Substance: Ac-LRMKGVGSPYVSRLLGICL-NH2 [AE37]
- Dose reductions required because of local reaction ≧100 mm ([5]; first group 100:6 (100 μg AE37 + 250 μg GM-CSF)): required no reductions in dose
- Dose reductions required because of local reaction ≧100 mm ([5]; second group 500:6 (500 μg AE37 + 250 μg GM-CSF initially)): required a GM-CSF dose reduction by the third vaccine
- Dose reductions required because of local reaction ≧100 mm ([5]; third group 1000:6 (1000 μg AE37 initiated without GM-CSF)): two of the three patients in this group required reduction of vaccine dose on multiple occasions
- DTH diameter of local reaction pre vaccine, range ([6]; before vaccination series): 0-17 mm
- DTH diameter of local reaction post-vaccine, range ([6]; one month after completion of series): 12-106 mm
- DTH mean diameter of local reaction post-vaccine ([6]; one month after completion of series, p<0.0001 vs pre): 62 mm
- DTH mean diameter of local reaction pre vaccine ([6]; read at 48-72 hours, before vaccination series): 4.9 mm
- Median DTH reaction at baseline ([3]; AG group (GM-CSF alone)): 0.0±0.7 cm
- Median DTH reaction at 1 month after completion of the primary series [3, 13]: 0 mm
- Median DTH reaction at baseline ([3]; PG group (AE37 + GM-CSF)): 0.0±0.7 cm
- Median DTH reaction at 1 month after completion of the primary series [3, 14]: 24.5 ± 2.6 mm
- Median proliferation response versus baseline ([4]; AG (GM-CSF alone)): did not significantly change
- Median proliferation response versus baseline [4, 15]: significantly increased from baseline
- Recurrences (patients/total) [7]: 0/49
- Recurrences [7]: 0.0%
- Protection against BCa recurrences ([7]; phase II): protects against BCa recurrences
- Grade 3 or greater local toxicities [8]: no grade 3 or greater local toxicities
- Local toxicity grade, all patients [8]: grade 1 or 2 local toxicity
- Maximum Toxicity, Local Toxicity Grade 1, number of patients (%) [8]: 3 (25)%
- Maximum Toxicity, Local Toxicity Grade 2, number of patients (%) [8]: 9 (75%)
- Maximum Toxicity, Local Toxicity Grade 3, number of patients (%) [8]: 0 (0%)
- Maximum Toxicity, Systemic Toxicity Grade 1, number of patients (%) [8]: 10 (83%)
- Maximum Toxicity, Systemic Toxicity Grade 2, number of patients (%) [8]: 0 (0%)
- Maximum Toxicity, Systemic Toxicity Grade 3, number of patients (%) [8]: 0 (0%)
- Overall safety and tolerability [8]: safe and well-tolerated with minimal systemic toxicity observed
- Systemic toxicities reported [8]: Only grade 1 systemic toxicities
- Overall safety [9]: safe

Substance: GM-CSF
- Recurrences (patients/total) [7]: 5/71
- Recurrences [7]: 7.0%
- Local toxicities ([10]; PG = 500 mcg AE37 + 62.5 or 125 mcg GM-CSF): no grade 4-5 local toxicities
- Systemic toxicities ([10]; PG = AE37 + GM-CSF): no grade 3-5 systemic toxicities

Substance: GP2: immunogenic peptide of Her-2/neu used in clinical trials as vaccine (IISAVVGIL; UniProt P04626 654-662, looked up, fragment)
- Safety in patients [11]: safe in patients
- Stimulation of antigen specific immunity [11]: effective in stimulating antigen specific immunity

Substance: LRMK [four-amino-acid Ii-Key moiety, Ii 77-80]
- Activity retained relative to LRMKLPK [12]: at least 50%

Substance: LRMKLPK
- Potency relative to the original 16-amino acid peptide [12]: greater potency than the original 16-amino acid peptide
